Assay results taken from ChEMBL document CHEMBL4673320, “Structure Elucidation of the spiro-Polyketide Svalbardine B from the Arctic Fungal Endophyte Poaceicola sp. E1PB with Support from Extensive ESI-MS Interpretation” (J Nat Prod, 2020).
Activity calls are given as the source filed them.

Experiments:
SH-SY5Y = assay: Cytotoxicity against human SH-SY5Y cells assessed as reduction in cell viability at 20 uM after 24 hrs by MTT assay; assay type: functional, cell-based
Serratia marcescens = assay: Antibacterial activity against Serratia marcescens ATCC 14756 assessed as reduction in microbial growth at 20 uM after 18 hrs by resazurin based assay; assay type: functional, organism-based
Pseudomonas aeruginosa = assay: Antibacterial activity against Pseudomonas aeruginosa ATCC 10145 assessed as reduction in microbial growth at 20 uM after 18 hrs by resazurin based assay; assay type: functional, organism-based
Yersinia enterocolitica = assay: Antibacterial activity against Yersinia enterocolitica ATCC 23715 assessed as reduction in microbial growth at 20 uM after 18 hrs by resazurin based assay; assay type: functional, organism-based
Salmonella typhimurium = assay: Antibacterial activity against Salmonella typhimurium ATCC 14028 assessed as reduction in microbial growth at 20 uM after 18 hrs by resazurin based assay; assay type: functional, organism-based; conditions: Salmonella enterica subsp. enterica serovar Typhimurium, DT104 ATCC 14028
Enterobacter cloacae = assay: Antibacterial activity against Enterobacter cloacae ATCC 35030 assessed as reduction in microbial growth at 20 uM after 18 hrs by resazurin based assay; assay type: functional, organism-based
Shigella flexneri = assay: Antibacterial activity against Shigella flexneri ATCC 12020 assessed as reduction in microbial growth at 20 uM after 18 hrs by resazurin based assay; assay type: functional, organism-based
Escherichia coli = assay: Antibacterial activity against Escherichia coli ATCC 25922 assessed as reduction in microbial growth at 20 uM after 18 hrs by resazurin based assay; assay type: functional, organism-based
[1] = test system: Staphylococcus ureilyticus; assay: Antibacterial activity against Staphylococcus cohnii subsp. urealyticum assessed as reduction in microbial growth after at 20 uM 18 hrs by resazurin based assay; assay type: functional
[2] = test system: Staphylococcus haemolyticus; assay: Antibacterial activity against Staphylococcus haemolyticus ATCC 29970 assessed as reduction in microbial growth at 20 uM after 18 hrs by resazurin based assay; assay type: functional, organism-based
Staphylococcus aureus = assay: Antibacterial activity against Staphylococcus aureus ATCC 25923 assessed as reduction in microbial growth at 20 uM after 18 hrs by resazurin based assay; assay type: functional, organism-based

Measured: Activity

COc1cc(=O)oc(C[C@H](C)O)c1C
inactive: all assays above

CCCc1oc(=O)cc(OC)c1C
inactive: all assays above

COC(=O)c1cc(OC)cc(O)c1C(=O)C1CC2(CCc3cc(OC)cc(C(=O)OC)c3C2=O)C(=O)C2=C(C)OC(C)=CC21 (stereo unspecified)
inactive: all assays above

C=C1OC(=O)c2c(O)cc(OC)c(C)c2[C@H]1C
inactive: all assays above

COC(=O)c1cc(OC)cc2c1-c1oc(C)cc(=O)c1CO2
inactive: all assays above

COc1cc(O)c2c(c1C)[C@@H](C)[C@@](O)(CO)OC2=O
inactive: all assays above
